Experimental data: patent US10106558B2, “Azolobenzazine compounds, compositions comprising these compounds and their use for controlling invertebrate pests” (BASF SE, priority 2015, dated 2018)

What was measured:
Format in all cases: in vivo
[1] = test system: Orchid Thrips (Dichromothrips corbetti); test: Action on orchid thrips, floral-immersion technique; conditions: adult thrips, 72 hours after treatment, read-out: mortality in comparison with untreated controls
In short: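 Lab-colony adult thrips, about 20 per arena, were exposed to whole orchid flower petals dipped in compound diluted in 1:1 acetone:water with 0.01% v/v Kinetic HV and then dried. Arenas were held under continuous light at about 28 °C. Live thrips were counted after 3 days and percent mortality recorded at 72 h post-treatment.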

[2] = test system: boll weevil (Anthonomus grandis); test: Action on boll weevil, eggs on insect diet in 96-well microtiter plates; conditions: 120 h, 800 ppm, egg and larval mortality visually assessed after 5 days, read-out: mortality in comparison with untreated controls
In short: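 Diet in 96-well plates was infested with 5-10 A. grandis eggs and sprayed with compounds formulated in 75% water/25% DMSO, at several concentrations, in two replicates. Plates were held 5 days at about 25±1 °C and 75±5% RH. Egg and larval mortality was then scored visually.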

[3] = test system: Mediterranean fruitfly (Ceratitis capitata); test: Action on Mediterranean fruitfly, eggs on insect diet in microtiter plates; conditions: 120 h, egg and larval mortality visually assessed after 5 days, read-out: mortality in comparison with untreated controls
In short: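 Microtiter plates held insect diet plus 50-80 C. capitata eggs; compounds in 75% water/25% DMSO were sprayed onto the diet at several concentrations, two replicates. Plates were kept at about […] and […] relative humidity for 5 days, then egg and larval mortality was scored visually.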

[4] = test system: yellow fever mosquito (Aedes aegypti); test: whole plant or invertebrate; conditions: 48 h, larval mortality visually assessed after 2 days, read-out: mortality in comparison with untreated controls
In short: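 Freshly hatched larvae (5-15 per well) held in 200 μl tap water; compounds formulated in 25% DMSO/water and 2.5 μl sprayed at several concentrations, two replicates. Plates kept 2 days at 28 °C, 80% RH, then larval mortality scored visually.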

[5] = test system: tobacco budworm (Heliothis virescens); test: Action on tobacco budworm, eggs on insect diet in 96-well microtiter plates; conditions: 120 h, egg and larval mortality visually assessed after 5 days, read-out: mortality in comparison with untreated controls
In short: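 Compounds in 25% DMSO/water sprayed (10 μl) onto insect diet holding 15–25 H. virescens eggs, two replicates at several concentrations. Held 5 days at about 28±1 °C, 80±5% RH. Egg and larval mortality scored visually.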

[6] = test system: Southern Armyworm (Spodoptera eridania), 2nd instar larvae; test: Action on southern armyworm 2nd instar larvae, sprayed lima bean plants; conditions: 96 h, 4 days after treatment, read-out: mortality in comparison with untreated controls
In short: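 Lima bean plants (Sieva, 1st true leaf) sprayed electrostatically with compound in 50% acetone/water plus 0.01% nonionic surfactant, dried, then infested with 10–11 larvae in bags. Held at about 25 °C, 20–40% RH; mortality and reduced feeding scored 4 days after treatment versus untreated plants.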

[7] = test system: Diamond Back Moth (Plutella xylostella); test: Action on diamond back moth, dipped cabbage leaves; conditions: 3rd instar larvae, 72 hours after treatment, read-out: mortality in comparison with untreated controls
In short: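 Cabbage leaves dipped in compound in 1:1 water:acetone with 0.01% (vol/vol) surfactant, air-dried, placed on moist filter paper and infested with ten 3rd-instar larvae. Mortality scored 72 hours after treatment; feeding damage rated on a 0-100% scale.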

[8] = test system: Silverleaf Whitefly (Bemisia argentifolii) (Adults); test: Action on silverleaf whitefly adults, sprayed cotton plants; conditions: 72 h, 3 days after treatment, read-out: mortality in comparison with untreated controls
Description: Example B4: Action on Silverleaf Whitefly (Bemisia argentifolii) (Adults)
The active compounds were formulated by a Tecan liquid handler in 100% cyclohexanone as a 10,000 ppm solution supplied in tubes. The 10,000 ppm solution was serially diluted in 100% cyclohexanone to make interim solutions. These served as stock solutions for which final dilutions were made by the Tecan in 50% acetone:50% water (v/v) into 5 or 10 ml glass vials. A nonionic surfactant (Kinetic®) was included in the solution at a volume of 0.01% (v/v). The vials were then inserted into an automated electrostatic sprayer equipped with an atomizing nozzle for application to plants/insects.
Cotton plants at the cotyledon stage (one plant per pot) were sprayed by an automated electrostatic plant sprayer equipped with an atomizing spray nozzle. The plants were dried in the sprayer fume hood and then removed from the sprayer. Each pot was placed into a plastic cup and about 10 to 12 whitefly adults (approximately 3-5 days old) were introduced. The insects were collected using an aspirator and a nontoxic Tygon® tubing connected to a barrier pipette tip. The tip, containing the collected insects, was then gently inserted into the soil containing the treated plant, allowing insects to crawl out of the tip to reach the foliage for feeding. Cups were covered with a reusable screened lid. Test plants were maintained in a growth room at about 25° C. and about 20-40% relative humidity for 3 days, avoiding direct exposure to fluorescent light (24 hour photoperiod) to prevent trapping of heat inside the cup. Mortality was assessed 3 days after treatment, compared to untreated control plants.

[9] = test system: vetch aphid (Megoura viciae); test: Action on vetch aphid, broad bean leaf disks in 24-well microtiter plates; conditions: foliar, 120 h, adult aphids on treated leaf disks, 5 days, read-out: mortality in comparison with untreated controls
Description: Example B7: Action on Vetch Aphid (Megoura viciae)
For evaluating control of vetch aphid (Megoura viciae) through contact or systemic means the test unit consisted of 24-well-microtiter plates containing broad bean leaf disks.
The compounds were formulated using a solution containing 75% v/v water and 25% v/v DMSO. Different concentrations of formulated compounds were sprayed onto the leaf disks at 2.5 μl, using a custom built micro atomizer, at two replications.
After application, the leaf disks were air-dried and 5-8 adult aphids placed on the leaf disks inside the microtiter plate wells. The aphids were then allowed to suck on the treated leaf disks and incubated at about 23±1° C. and about 50±5% relative humidity for 5 days. Aphid mortality and fecundity was then visually assessed.

CC(C)c1ccccc1N1CCS/C1=N/N=C/c1ccc2c(ccc3c2ncn3-c2ccc(OC(F)(F)F)cc2)n1 [Compound C-21, (E)-3-(2-isopropylphenyl)-N-[(E)-[3-[4-(trifluoromethoxy)phenyl]imidazo[4,5-f]quinolin-7-yl]methyleneamino]thiazolidin-2-imine]
≥ 75%: mortality at 500 ppm [1] | mortality at 800 ppm [2] | mortality at 800 ppm [3] | mortality at 800 ppm [4] | mortality at 800 ppm [5] | mortality at 500 ppm [6] | mortality at 500 ppm [7] | mortality at 500 ppm [8] | mortality at 800 ppm [9]
